Results from PubChem BioAssay (NCI).
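1) Cells in 96-well plates. 2) Compound, 48 h, 5 concentrations. 3) Linear interpolation between surrounding doses. 4) Unreached endpoint = highest concentration. At the TGI there is no net growth.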

Assays:
Assay in all cases: NCI tumour cell line growth inhibition, 48 h
[1] = test system: SN12C renal
[2] = test system: MDA-N
[3] = test system: IGROV1 ovarian
[4] = test system: SNB-19 CNS
[5] = test system: CAKI-1 renal
[6] = test system: HCC-2998 colon
[7] = test system: U251 CNS
[8] = test system: SK-OV-3 ovarian
[9] = test system: PC-3 prostate
[10] = test system: OVCAR-4 ovarian
[11] = test system: CCRF-CEM leukemia
[12] = test system: COLO 205 colon
[13] = test system: MOLT-4 leukemia
[14] = test system: SF-539 CNS
[15] = test system: OVCAR-5 ovarian
[16] = test system: KM12 colon
[17] = test system: HOP-62 NSCLC
[18] = test system: RXF 393 renal
[19] = test system: SF-268 CNS
[20] = test system: SK-MEL-28 melanoma
[21] = test system: HCT-15 colon
[22] = test system: NCI-H522 lung
[23] = test system: OVCAR-8 ovarian
[24] = test system: HS 578T breast
[25] = test system: HOP-92 NSCLC
[26] = test system: UACC-257 melanoma
[27] = test system: DU-145 prostate
[28] = test system: M14 melanoma
[29] = test system: OVCAR-3 ovarian
[30] = test system: BT-549 breast
[31] = test system: SF-295 CNS
[32] = test system: MDA-MB-231 breast
[33] = test system: UO-31 renal
[34] = test system: TK-10 renal
[35] = test system: ACHN renal
[36] = test system: HCT-116 colon
[37] = test system: SW-620 colon
[38] = test system: NCI-H226 lung
[39] = test system: A549 NSCLC
[40] = test system: NCI-H23 lung
[41] = test system: 786-0 renal
[42] = test system: EKVX NSCLC
[43] = test system: SNB-75 CNS
[44] = test system: K-562 leukemia
[45] = test system: SK-MEL-5 melanoma
[46] = test system: SR leukemia
[47] = test system: LOX IMVI melanoma
[48] = test system: UACC-62 melanoma
[49] = test system: NCI/ADR-RES ovarian
[50] = test system: MDA-MB-435
[51] = test system: SK-MEL-2 melanoma
[52] = test system: MALME-3M melanoma
[53] = test system: HL-60(TB) leukemia
[54] = test system: A498 renal
[55] = test system: RPMI-8226 leukemia
[56] = test system: MCF7 breast
[57] = test system: NCI-H460 lung
[58] = test system: HT29 colon

Measured: TGI

Nc1ncnc2c1ncn2C1OC(CO)CC1O (configuration not stated)
92 µM: [30]
38.7 µM: [22]
43.7 µM: [6]
49.6 µM: [23]
42.7 µM: [32]
82.2 µM: [24]
80.2 µM: [1]
45.8 µM: [41]
70.8 µM: [47]
42.8 µM: [44]
83.3 µM: [21]
55.2 µM: [49]
40.4 µM: [9]
> 100 µM: [2] | [3] | [4] | [5] | [7] | [8] | [10] | [11] | [12] | [13] | [14] | [15] | [16] | [17] | [18] | [19] | [20] | [25] | [26] | [27] | [28] | [29] | [31] | [33] | [34] | [35] | [36] | [37] | [38] | [39] | [40] | [42] | [43] | [45] | [46] | [48]

O=C(c1ccc(-c2ccccc2)cc1)N(Cc1cccnc1)C(=S)N(Cc1cccnc1)C(=O)c1ccc(-c2ccccc2)cc1
72.4 µM: [55]
> 100 µM: [1] | [2] | [50] | [4] | [5] | [51] | [52] | [6] | [7] | [8] | [9] | [10] | [11] | [12] | [14] | [15] | [16] | [17] | [19] | [53] | [20] | [21] | [22] | [54] | [23] | [24] | [25] | [26] | [27] | [28] | [29] | [30] | [31] | [32] | [33] | [34] | [35] | [56] | [36] | [37] | [38] | [39] | [40] | [41] | [42] | [44] | [57] | [45] | [47] | [48] | [58] | [49]
